Patent US20260234165A1, “MACROCYCLIC COMPOUNDS, PREPARATION METHOD THEREFOR, AND USE THEREOF” (GENFLEET THERAPEUTICS (SHANGHAI) INC., priority 2004, published 2026)
Counter-ions that a name gives are not always drawn. Like-named read-outs stand apart in the source and are kept apart here.

Experiments:
Type in all cases: cell-based, human
[1] = test system: p-ERK in NCI-H441 cells (KRAS G12V mutation); assay: Cell p-ERK assay (HTRF) in NCI-H441 cells
In short: (§1)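 AsPC-1 (10000/well) or NCI-H441 (20000/well) cells were seeded in RPMI-1640 with 10% FBS, grown overnight, then exposed to 3.16-fold compound dilutions (0.1% DMSO) for 3 h at 37 °C. Lysates were read for phospho-ERK T202/Y204 by HTRF; IC50 came from four-parameter fits of inhibition versus DMSO and blank wells.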

NCI-H441 cells = assay: 3D cell proliferation assay (CellTiter Glo-3D), NCI-H441; conditions: medium with 2% FBS, read-out: H441 AP IC50
In short: (§2)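 NCI-H441 ([…] lung) and AsPC-1 (KRAS G12D pancreatic) cells, 800 per well, were seeded in RPMI-1640 with 2% FBS and dosed next day with 3.16-fold compound dilutions (0.1% DMSO). After 5 days at 37 °C, CellTiter-Glo 3D luminescence gave inhibition versus DMSO and blank; IC50 from four-parameter fit.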

[2] = test system: p-ERK in AsPC-1 cells (KRAS G12D mutation); assay: Cell p-ERK assay (HTRF) in AsPC-1 cells
In short: as §1

[3] = test system: AsPC-1 cells (KRAS G12D mutation); assay: 3D cell proliferation assay (CellTiter Glo-3D), AsPC-1; conditions: medium with 2% FBS, read-out: AsPC-1 AP IC50
In short: as §2

[4] = Homo sapiens, NCI-H441, 3 h, NCI-H441 cells, 3 h compound incubation, HTRF p-ERK T202/Y204, read-out: H441 p-ERK IC50
[5] = 3D cell proliferation (CellTiter Glo-3D)
[6] = Homo sapiens, ASPC1, 3 h, AsPC-1 cells, 3 h compound incubation, HTRF p-ERK T202/Y204, read-out: AsPC-1 p-ERK IC50
[7] = NCI-H441 cells, 3 h compound incubation, HTRF p-ERK T202/Y204, read-out: H441 p-ERK IC50
[8] = AsPC-1 cells, 3 h compound incubation, HTRF p-ERK T202/Y204, read-out: AsPC-1 p-ERK IC50
[9] = Homo sapiens, NCI-H441, 3D cell proliferation (CellTiter Glo-3D)
[10] = Homo sapiens, ASPC1, 3D cell proliferation (CellTiter Glo-3D)

`CCn1c(-c2cc(C#CCN3CCCOCC3)c[n+]([O-])c2[C@H](C)OC)c2c3cc(ccc31)-c1csc(n1)C[C@H](NC(=O)[C@H]1[C@H](C)[C@@H]1C)C(=O)N1CCC[C@H](N1)C(=O)OCC(C)(C)C2` [Compound Z914, 5-(3-(1,4-oxazepan-4-yl)prop-1-yn-1-yl)-3-((6^3S,4S,Z)-4-((r,2R,3S)-2,3-dimethylcyclopropane-1-carboxamido)-1^1-ethyl-10,10-dimethyl-5,7-dioxo-6^1,6^2,6^3,6^4,6^5,6^6-hexahydro-1^1H-8-oxa-2(4,2)-thiazola-1(5,3)-indola-6(1.3)-pyridazinacycloundecaphane-1^2-yl)-2-((S)-1-methoxyethyl)pyridine-1-oxide] showed an IC50 [1, 4] of 0.46 nM, an IC50 (NCI-H441 cells; [5]) of 0.26 nM and an IC50 [2, 6] of 0.25 nM. For the same molecule, the IC50 [3, 5] was 0.58 nM.
`C=C1CN(CC#Cc2cnc([C@H](C)OC)c(-c3c4c5cc(ccc5n3CC)-c3csc(n3)C[C@H](NC(=O)[C@H]3[C@H](C)[C@@H]3C)C(=O)N3CCC[C@H](N3)C(=O)OCC(C)(C)C4)c2)C1` [Compound Z1034, (1 r,2R,3S)—N-((6^3S,4S,Z)-1^1-ethyl-1^2-(2-((S)-1-methoxyethyl)-5-(3-(3-methyleneazetidine-1-yl)prop-1-Sn-1-yl)pyridin-3-yl)-10,10-dimethyl-5,7-dioxo-6^1,6^2,6^3,6^4,6^5,6^6-hexahydro-1^1H-8-oxa-2(4.2)-thiazola-1(5,3)-indola-6(1.3)-pyridazinacycloundecaphane-4-yl)-2,3-dimethylcyclopropane-1-carboxamide] showed an IC50 [1, 7] of 0.29 nM, an IC50 (NCI-H441 cells; [5]) of 0.28 nM and an IC50 [2, 8] of 0.33 nM. The IC50 [3, 5] was 0.2 nM.
In the case of `CCn1c(-c2cc(C#CCN3CCC(N=S(C)(C)=O)CC3)cnc2[C@H](C)OC)c2c3cc(ccc31)-c1csc(n1)C[C@H](NC(=O)[C@H]1[C@H](C)[C@@H]1C)C(=O)N1CCC[C@H](N1)C(=O)OCC(C)(C)C2` [Compound Z1045], the IC50 [1, 4] is reported as 0.19 nM, the IC50 (NCI-H441 cells; [9]) is reported as 0.17 nM and the IC50 [2, 6] is reported as 0.36 nM. The IC50 [3, 10] was 0.21 nM.
`CCn1c(-c2cc(C#CCN3CC(N=S(C)(C)=O)C3)cnc2[C@H](C)OC)c2c3cc(ccc31)-c1csc(n1)C[C@H](NC(=O)[C@H]1[C@H](C)[C@@H]1C)C(=O)N1CCC[C@H](N1)C(=O)OCC(C)(C)C2` [Compound Z1046, (2R,3S)—N-((6^3S,4S,Z)-1^2-(5-(3-(3-((dimethyl(oxo)-λ^6-sulfaneylidene)amino)azetidin-1-yl)prop-1-yn-1-yl)-2-((S)-1-methoxyethyl)pyridin-3-yl)-1^1-ethyl-10,10-dimethyl-5,7-dioxo-6^1,6^2,6^3,6^4,6^5,6^6-hexahydro-1^1H-8-oxa-2(4,2)-thiazola-1(5,3)-indola-6(1,3)-pyridazinacycloundecaphane-4-yl)-2,3-dimethylcyclopropane-1-carboxamide] showed an IC50 [1, 4] of 0.34 nM, an IC50 (NCI-H441 cells; [9]) of 0.34 nM and an IC50 [2, 6] of 0.71 nM. The IC50 [3, 10] was 0.63 nM.
Molecule `CCn1c(-c2cc(C#CCN3CCC(C#N)(c4cccc[n+]4[O-])CC3)cnc2[C@H](C)OC)c2c3cc(ccc31)-c1csc(n1)C[C@H](NC(=O)[C@H]1[C@H](C)[C@@H]1C)C(=O)N1CCC[C@H](N1)C(=O)OCC(C)(C)C2` [Compound Z1054, 2-(4-cyano-1-(3-(5-((6^3S,4S,Z)-4-((2R,3S)-2 3-dimethylcyclopropane-1-carboxamido)-1^1-ethyl-10,10-dimethyl-5,7-dioxo-6^1,6^2,6^3,6^4,6^5,6^6-hexahydro-1^1H-8-oxa-2(4.2)-thiazola-1(5,3)-indola-6(1,3)-pyridazinacycloundecaphane-12-yl)-6-((S)-1-methoxyethyl)pyridin-3-yl)prop-2-yn-1-yl)piperidin-4-yl)pyridine 1-oxide formate] has an IC50 ([1]; Homo sapiens, NCI-H441, 3 h, read-out: H441 p-ERK IC50(nM)) of 0.25 nM, an IC50 (NCI-H441 cells; Homo sapiens, 3D cell proliferation (CellTiter Glo-3D)) of 0.15 nM and an IC50 ([2]; Homo sapiens, ASPC1, 3 h, read-out: AsPC-1 p-ERK IC50(nM)) of 0.16 nM. The IC50 [3, 10] was 0.08 nM.
In the case of `CCn1c(-c2cc(C#CCN3CC(O)C3)cnc2[C@H](C)OC)c2c3cc(ccc31)-c1csc(n1)C[C@H](NC(=O)[C@H]1[C@H](C)[C@@H]1C)C(=O)N1CCC[C@H](N1)C(=O)OCC(C)(C)C2` [Compound Z1065, (2R,3S)—N-((6^3S,4S,Z)-1^1-ethyl-1^2-(5-(3-(3-hydroxyazetidin-1-yl)prop-1-yn-1-yl)-((S)-1-methoxyethyl)pyridin-3-yl)-10,10-dimethyl-5,7-dioxo-6^1,6^2,6^3,6^4,6^5,6^6-hexahydro-1^1H-8-oxo-2(4,2)-thiazola-1(5,3)-indola-6(1,3)-pyridazinacycloundecaphane-4-yl)-2,3-dimethylcyclopropane-1-carboxamide formate], the IC50 [1, 7] is reported as 0.31 nM, the IC50 (NCI-H441 cells; [5]) is reported as 0.4 nM and the IC50 [2, 8] is reported as 0.42 nM. For the same molecule, the IC50 [3, 5] was 0.43 nM.
Molecule “(1S,2R,3S)—N-((6^3S,4S,Z)—(Ra)-1^2-(5-(2-(4-oxa-7-azaspiro[2,5]octan-7-yl)ethoxy)-2-((S)-1-methoxyethyl)pyridin-3-yl)-11-ethyl-10,10-dimethyl-5,7-dioxo-6^1,6^2,6^3,6^4,6^5,6^6-hexahydro-1^1H-8-oxa-2(4,2)-thiazola-1(5,3)-indola-6(1,3)- pyridazinacycloundecaphane-4-yl)-2-methyl-3-(pyrimidin-4-yl)cyclopropane-1-carboxamide [Compound Z661-1]” has an IC50 [1, 7] of 37.7 nM, an IC50 (NCI-H441 cells; [5]) of 42.6 nM and an IC50 [2, 8] of 93 nM. For the same molecule, the IC50 [3, 5] was 97.2 nM.
